Legend:
[1] = biological target: T1, rat mGluR5 (Rattus norvegicus, UniProt P31424); assay: mGluR5 assay on HEK-expressing rat mGluR5 (fluorescent cell based Ca2+ mobilization); conditions: for EC50: HEK-293 cells stably expressing rat mGluR5, no co-addition of glutamate, mean of at least three independent experiments in duplicate, read-out: Ca2+ Flux (mean EC50); for activation of rat mGluR5 receptors: HEK-rat mGluR5 cell line, without co-addition of glutamate or mGluR5 agonist
T1 construct: expressed in transfected cells
T1 sequence (P31424 21-1171 isoform P31424-2 limits assumed): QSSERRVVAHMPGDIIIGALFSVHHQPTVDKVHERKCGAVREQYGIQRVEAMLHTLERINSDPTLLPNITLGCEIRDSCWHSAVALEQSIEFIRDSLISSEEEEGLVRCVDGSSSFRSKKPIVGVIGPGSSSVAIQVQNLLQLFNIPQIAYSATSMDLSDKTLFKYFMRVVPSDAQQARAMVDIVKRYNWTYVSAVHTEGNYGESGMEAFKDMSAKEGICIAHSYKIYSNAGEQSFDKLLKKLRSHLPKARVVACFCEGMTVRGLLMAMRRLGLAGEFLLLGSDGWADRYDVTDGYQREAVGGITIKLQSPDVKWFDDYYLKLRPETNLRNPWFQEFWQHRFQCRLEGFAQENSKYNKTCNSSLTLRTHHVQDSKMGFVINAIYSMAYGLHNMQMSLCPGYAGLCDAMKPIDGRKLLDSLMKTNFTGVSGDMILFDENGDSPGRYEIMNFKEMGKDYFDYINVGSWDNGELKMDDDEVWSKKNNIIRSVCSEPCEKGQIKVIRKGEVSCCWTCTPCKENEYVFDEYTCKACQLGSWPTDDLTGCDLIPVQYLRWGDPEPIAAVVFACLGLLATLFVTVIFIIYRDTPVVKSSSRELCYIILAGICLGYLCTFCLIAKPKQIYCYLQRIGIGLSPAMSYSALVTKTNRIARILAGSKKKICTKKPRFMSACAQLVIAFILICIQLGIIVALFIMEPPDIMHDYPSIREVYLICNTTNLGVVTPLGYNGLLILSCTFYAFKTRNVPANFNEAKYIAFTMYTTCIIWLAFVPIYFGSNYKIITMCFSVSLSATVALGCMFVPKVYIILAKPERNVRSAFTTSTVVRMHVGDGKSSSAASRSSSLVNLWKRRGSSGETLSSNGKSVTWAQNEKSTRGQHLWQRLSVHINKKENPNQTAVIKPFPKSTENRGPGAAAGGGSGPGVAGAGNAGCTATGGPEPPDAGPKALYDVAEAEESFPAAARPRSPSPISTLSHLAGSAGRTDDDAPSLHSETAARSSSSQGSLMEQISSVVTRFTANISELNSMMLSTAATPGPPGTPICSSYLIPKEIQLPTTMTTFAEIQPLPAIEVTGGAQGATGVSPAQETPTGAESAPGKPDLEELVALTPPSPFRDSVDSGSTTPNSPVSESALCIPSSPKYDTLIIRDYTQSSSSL
Protocol: Positive functional expression of HEK-293 cells stably expressing rat mGluR5 receptor was determined by measuring intracellular Ca^2+ changes using a Fluorometric Imaging Plate Reader (FLIPR, Molecular Devices, Sunnyvale, Calif.) in response to glutamate or selective known mGluR5 agonists and antagonists. Rat mGluR5RT-PCR products in HEK-293 cells were sequenced and found 100% identical to rat mGluR5Genbank reference sequence (NM_017012). HEK-293 cells expressing rmGluR5 were maintained in media containing DMEM, dialyzed Fetal Bovine Serum (10%), Glutamax™ (2 mM), Penicillin (100 units/ml), Streptomycin (100 μg/ml), Geneticin (100 μg/ml) and Hygromycin-B (40 μg/ml) at 37° C./5% CO2.
After one day of incubation, cells were washed with assay buffer containing: 142 mM NaCl, 6 mM KCl, 1 mM […], 1 mM CaCl2, 20 mM HEPES, 1 g/L glucose, 0.125 mM sulfinpyrazone, pH 7.4. After 60 min of loading with 4 uM Fluo-4 (TefLabs, Austin, Tex.), the cells were washed three times with 50 μl of PBS Buffer and resuspended in 45 μl of assay Buffer. The plates were then transferred to a Fluorometric Imaging Plate Reader (FLIPR, Molecular Devices, Sunnyvale, Calif.) for the assessment of intracellular calcium flux. After monitoring the baseline fluorescence for 10 seconds, increasing concentrations of representative compound (from 0.01 to 60 μM) of the present invention diluted in Assay Buffer (15 μl of 4× dilutions) was added to the cell. The final DMSO concentration in the assay was 0.3%. In each experiment, fluorescence was then monitored as a function of time for 3 minutes and the data analyzed using Microsoft Excel and GraphPad Prism. Each data point was also measured two times.
Under these experimental conditions, this HEK-rat mGluR5 cell line is able to directly detect positive allosteric modulators without the need of co-addition of glutamate or mGluR5 agonist.
The concentration-response curves of representative compounds of the present invention were generated using the Prism GraphPad software (Graph Pad Inc, San Diego, USA). The curves were fitted to a four-parameter logistic equation:
(Y=Bottom+(Top-Bottom)/(1+10̂((Log EC50−X)*Hill Slope)
allowing determination of EC50 values.
The Table 1 below represents the mean EC50 obtained from at least three independent experiments of selected molecules performed in duplicate.

[2] = biological target: T2, mGluR5 (Rattus norvegicus, UniProt P31424); conditions: Liu et al (2006), Zhang et al (2005); cited from earlier work
T2 construct: positive allosteric modulators of mGluR5 receptors in native preparations; endogenous in cells; host or cells: primary cortical astrocytes from Sprague-Dawley rat embryos (E16-19)
T2 sequence (P31424 21-1203): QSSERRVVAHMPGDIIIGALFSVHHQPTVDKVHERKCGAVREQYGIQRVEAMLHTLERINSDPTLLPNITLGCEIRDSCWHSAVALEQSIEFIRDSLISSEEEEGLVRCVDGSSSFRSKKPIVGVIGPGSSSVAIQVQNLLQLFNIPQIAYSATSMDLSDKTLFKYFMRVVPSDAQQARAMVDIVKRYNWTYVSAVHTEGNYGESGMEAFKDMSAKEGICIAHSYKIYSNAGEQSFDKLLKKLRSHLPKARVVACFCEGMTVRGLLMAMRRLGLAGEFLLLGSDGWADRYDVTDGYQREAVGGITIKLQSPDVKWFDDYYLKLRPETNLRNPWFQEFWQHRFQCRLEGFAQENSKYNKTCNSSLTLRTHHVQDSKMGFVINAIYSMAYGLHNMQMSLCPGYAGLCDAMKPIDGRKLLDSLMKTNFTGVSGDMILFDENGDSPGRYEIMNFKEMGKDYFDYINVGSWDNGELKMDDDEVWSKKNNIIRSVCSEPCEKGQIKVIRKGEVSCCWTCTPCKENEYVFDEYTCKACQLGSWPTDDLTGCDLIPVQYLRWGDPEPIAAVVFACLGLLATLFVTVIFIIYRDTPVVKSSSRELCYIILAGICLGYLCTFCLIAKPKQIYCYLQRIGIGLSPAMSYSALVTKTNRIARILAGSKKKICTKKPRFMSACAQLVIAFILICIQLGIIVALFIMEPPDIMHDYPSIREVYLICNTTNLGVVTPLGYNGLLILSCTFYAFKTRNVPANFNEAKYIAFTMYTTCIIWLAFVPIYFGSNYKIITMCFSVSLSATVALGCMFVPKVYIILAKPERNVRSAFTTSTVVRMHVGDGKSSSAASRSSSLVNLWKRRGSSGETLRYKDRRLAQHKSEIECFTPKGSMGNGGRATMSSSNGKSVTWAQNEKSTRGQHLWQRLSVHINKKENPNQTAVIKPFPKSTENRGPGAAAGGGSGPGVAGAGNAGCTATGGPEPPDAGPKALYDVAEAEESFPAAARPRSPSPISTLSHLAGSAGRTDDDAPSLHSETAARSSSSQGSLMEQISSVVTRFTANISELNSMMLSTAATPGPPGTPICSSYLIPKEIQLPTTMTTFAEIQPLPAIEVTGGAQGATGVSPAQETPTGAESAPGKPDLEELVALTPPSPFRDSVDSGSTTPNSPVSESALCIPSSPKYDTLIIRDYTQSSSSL

| SMILES | EC50 [1] [nM] | other results |
| --- | --- | --- |
| O=C(c1ccnc(F)c1)N1CCC[C@H](c2nc(-c3ccccc3F)co2)C1 [Example 13, (S)-(3-(4-(2-Fluoro-phenyl)-oxazol-2-yl)-piperidin-1-yl)(2-fluoro-pyridin-4-yl)-methanone] | < 1000 | – |
| Cc1oncc1C(=O)N1CCC[C@H](c2nc(-c3ccc(F)cc3)co2)C1 [Example 7, (S)-(3-(4-(4-Fluoro-phenyl)-oxazol-2-yl)-piperidin-1-yl)(5-methyl-isoxazol-4-yl)-methanone] | < 1000 | – |
| O=C(c1ccc(F)c(F)c1)N1CCC[C@H](c2nc(-c3ccccn3)co2)C1 [Example 9, (S)-(3,4-Difluoro-phenyl)(3-(4-(pyridin-2-yl)-oxazol-2-yl)-piperidin-1-yl)-methanone] | < 1000 | – |
| N#Cc1cccc(C(=O)Nc2cc(-c3ccccc3)nn2-c2ccccc2)c1 [CDPPB, reference compound] | – | activation of rat mGluR5 receptors [1]: activating; activity in rat cortical astrocytes culture in the absence of added glutamate [2]: inactive |
| O=C(c1ccc(F)nc1)N1CCC[C@H](c2nc(-c3ccc(F)cc3F)co2)C1 [Example 15, (S)-(3-(4-(2,4-Difluoro-phenyl)-oxazol-2-yl)-piperidin-1-yl)(6-fluoro-pyridin-3-yl)-methanone] | 1000 to 10000 | – |
| O=C(c1ccc(F)cc1)N1CCC[C@H](c2nc(-c3ccc(F)cc3)co2)C1 [Example 3, (4-Fluoro-phenyl)-{(S)-3-[4-(4-fluorophenyl)-oxazol-2-yl]-piperidin-1-yl}-methanone] | < 1000 | – |
| O=C(c1ccncc1F)N1CCC[C@H](c2nc(-c3ccc(F)cc3)co2)C1 [Example 6, (3-Fluoro-pyridin-4-yl)-{(S)-3-[4-(4-fluoro-phenyl)-oxazol-2-yl]-piperidin-1-yl}-methanone] | < 1000 | – |
| O=C(c1ccc(F)cc1)N1CCC[C@H](c2nc(-c3ccccn3)co2)C1 [Example 8, (S)-(4-Fluoro-phenyl)(3-(4-(pyridin-2-yl)-oxazol-2-yl)-piperidin-1-yl)-methanone] | < 1000 | – |
| O=C(c1ccc(F)cc1)N1CCC[C@H](c2nc(-c3ccc(F)cc3F)co2)C1 [Example 14, (S)-(3-(4-(2,4-Difluoro-phenyl)-oxazol-2-yl)-piperidin-1-yl)(4-fluoro-phenyl)-methanone] | < 1000 | – |
| O=C(c1ccc(F)cc1)N1CCC[C@H](c2nc(-c3ccc(F)cn3)co2)C1 [Example 10, (S)-(4-Fluoro-phenyl)(3-(4-(5-fluoro-pyridin-2-yl)-oxazol-2-yl)-piperidin-1-yl)-methanone] | < 1000 | – |
| O=C(Nc1ccc(Cl)cc1CN1C(=O)c2ccccc2C1=O)c1ccccc1O [CPPHA, reference compound] | – | activation of rat mGluR5 receptors [1]: activating; activity in rat cortical astrocytes culture in the absence of added glutamate [2]: inactive |
| O=C(c1ccnc(F)c1)N1CCC[C@H](c2nc(-c3ccc(F)cc3)co2)C1 [Example 5, (2-Fluoro-pyridin-4-yl)-{(S)-3-[4-(4-fluoro-phenyl)-oxazol-2-yl]-piperidin-1-yl}-methanone] | < 1000 | – |
| O=C(c1ccnc(F)c1)N1CCC[C@H](c2nc(-c3ccc(F)cc3F)co2)C1 [Example 16, (S)-(3-(4-(2,4-Difluoro-phenyl)-oxazol-2-yl)-piperidin-1-yl)(2-fluoro-pyridin-4-yl)-methanone] | < 1000 | – |
| O=C(c1ccc(F)nc1)N1CCC[C@H](c2nc(-c3cc(F)c[nH]3)co2)C1 [Example 2, (6-Fluoro-pyridin-3-yl)-{(S)-3-[4-(4-fluoro-1H-pyrrol-2-yl)-oxazol-2-yl]-piperidin-1-yl}-methanone] | < 1000 | melting point: 123 °C |
| O=C(c1ccc(F)nc1)N1CCC[C@H](c2nc(-c3ccc(F)cc3)co2)C1 [Example 4, (6-Fluoro-pyridin-3-yl)-{(S)-3-[4-(4-fluoro-phenyl)-oxazol-2-yl]-piperidin-1-yl}-methanone] | < 1000 | – |
| O=C(c1ccc(F)nc1)N1CCC[C@H](c2nc(-c3ccccc3F)co2)C1 [Example 12, (S)-(3-(4-(2-Fluoro-phenyl)-oxazol-2-yl)-piperidin-1-yl)(6-fluoro-pyridin-3-yl)-methanone] | < 1000 | – |
| O=C(c1ccc(F)cc1)N1CCC[C@H](c2nc(-c3ccccc3F)co2)C1 [Example 11, (S)-(4-Fluoro-phenyl)(3-(4-(2-fluoro-phenyl)-oxazol-2-yl)-piperidin-1-yl)-methanone] | < 1000 | – |
| Fc1cccc(/C=N/N=C/c2cccc(F)c2)c1 [DFB, reference compound] | – | activation of rat mGluR5 receptors [1]: activating; activity in rat cortical astrocytes culture in the absence of added glutamate [2]: inactive |

From patent US20100081690A1, “OXAZOLE DERIVATIVES AS POSITIVE ALLOSTERIC MODULATORS OF METABOTROPIC GLUTAMATE RECEPTORS” (ADDEX PHARMA SA, priority 2006, published 2010)
